The values below come from patent publication US20240108747A1, “EXTRACELLULAR VESICLE CONJUGATES AND USES THEREOF” (LONZA SALES AG, priority 2019, published 2024).

The conditions of data set [1]: Phase 2 study (Palmer 2018); cited from earlier work.
In data set [2] the target is mouse LPA-1 (Mus musculus, UniProt P61793). The conditions noted are these: cited from earlier work.
Data set [3] deals with recombinant human LPA-1 (Homo sapiens, UniProt Q92633). The note with it: cited from earlier work.
The subject of data set [4] is mouse LPA-1/CHO cells. The conditions noted are these: read-out: IC50, inhibition of LPA-1-induced chemotaxis; cited from earlier work.
The test system of data set [5] is human A2058 melanoma cells. The conditions noted are these: read-out: IC50, inhibition of LPA-1-induced chemotaxis; cited from earlier work.
In data set [6] the test system is LPA-induced histamine release. The note with it: mice; cited from earlier work.
For data set [7] the following is noted: cited from earlier work.
The subject of data set [8] is NLRC4 inflammasome. The note with it: cited from earlier work.
Data set [9] relates to AIM2 inflammasome. The note with it: cited from earlier work.
Data set [10] concerns NLRP1 inflammasome. The conditions noted are these: cited from earlier work.
Data set [11] has as its system TLR2 signaling. The conditions noted are these: cited from earlier work.
Data set [12] has as its target NLRP3 (Sus scrofa, UniProt H2EW08). The note with it: models for myocardial infarction; cited from earlier work.
The test system of data set [13] is RAW264.7 (RAW) cells. Nature of the data set: MMAE cytotoxicity / cell growth on RAW264.7 cells (IncuCyte). The class given is cell-based, mouse. As to the method:
The dose-response effects of MMAE on RAW cell growth are shown in microphotographs (top), and measurements of cells growth (bottom left), and confluence (bottom right).
MMAE cytotoxicity was assessed on RAW264.7 (RAW) cells. RAW cells are a […] macrophage cell line. 10,000 RAW cells were seeded in each well of a 96 well plate, and cell growth was monitored using an IncuCyte instrument to image cells over a period of approximately 5 days. […] Images show cells after 5 days of treatment with the indicated dose of MMAE or DMSO; growth inhibition is evident from the decreased number of cells after treatment with MMAE, while cell death is indicated by the rounding up of cells (evident in the 10, 100, and 300 nM images). MMAE has a steep dose-response curve.

pIC50: −log10 of the molar value. Starred links: 1 amine or outer side, 2 acyl side, 3 side chain; linkers in the order of their positions; H or OH if unused. Non-standard residues stand in square brackets, D forms with d. Residues, ends and D or L forms follow the SMILES beside them. *: point of attachment. Dolaproine = CO[C@@H]([C@@H]1CCCN1)[C@@H](C)C(=O)O; Hexanoyl(6-maleimido) = O=C1C=CC(=O)N1CCCCCC(=O)*; Dil = CC[C@H](C)[C@H](NC)[C@@H](CC(=O)O)OC; PABC = O=C(OCc1ccc(N[*:1])cc1)[*:2]; X1 = C[C@@H](N*)[C@@H](O)c1ccccc1; Cit = NC(=O)NCCC[C@H](N)C(=O)O; NMeV = CN[C@H](C(=O)O)C(C)C

Sequence of mouse LPA-1 (P61793 whole entry): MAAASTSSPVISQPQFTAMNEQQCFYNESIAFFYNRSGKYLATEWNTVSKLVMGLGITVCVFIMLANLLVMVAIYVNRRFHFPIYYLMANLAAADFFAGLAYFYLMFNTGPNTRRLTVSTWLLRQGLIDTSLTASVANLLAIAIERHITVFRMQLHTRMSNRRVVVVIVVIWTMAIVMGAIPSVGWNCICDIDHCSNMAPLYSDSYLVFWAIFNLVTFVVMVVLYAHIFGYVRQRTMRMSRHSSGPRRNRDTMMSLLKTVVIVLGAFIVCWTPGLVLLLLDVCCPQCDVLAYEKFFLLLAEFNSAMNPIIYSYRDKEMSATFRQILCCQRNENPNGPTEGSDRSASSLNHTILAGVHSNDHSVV
Sequence of recombinant human LPA-1 (Q92633 whole entry): as the sequence (P61793 whole entry) above, with A4I, S8I, Q22P, Y40H, V61I, D193E, H194N, V269I, N331S, N335T counted along it
Sequence of NLRP3 (H2EW08 1-1036): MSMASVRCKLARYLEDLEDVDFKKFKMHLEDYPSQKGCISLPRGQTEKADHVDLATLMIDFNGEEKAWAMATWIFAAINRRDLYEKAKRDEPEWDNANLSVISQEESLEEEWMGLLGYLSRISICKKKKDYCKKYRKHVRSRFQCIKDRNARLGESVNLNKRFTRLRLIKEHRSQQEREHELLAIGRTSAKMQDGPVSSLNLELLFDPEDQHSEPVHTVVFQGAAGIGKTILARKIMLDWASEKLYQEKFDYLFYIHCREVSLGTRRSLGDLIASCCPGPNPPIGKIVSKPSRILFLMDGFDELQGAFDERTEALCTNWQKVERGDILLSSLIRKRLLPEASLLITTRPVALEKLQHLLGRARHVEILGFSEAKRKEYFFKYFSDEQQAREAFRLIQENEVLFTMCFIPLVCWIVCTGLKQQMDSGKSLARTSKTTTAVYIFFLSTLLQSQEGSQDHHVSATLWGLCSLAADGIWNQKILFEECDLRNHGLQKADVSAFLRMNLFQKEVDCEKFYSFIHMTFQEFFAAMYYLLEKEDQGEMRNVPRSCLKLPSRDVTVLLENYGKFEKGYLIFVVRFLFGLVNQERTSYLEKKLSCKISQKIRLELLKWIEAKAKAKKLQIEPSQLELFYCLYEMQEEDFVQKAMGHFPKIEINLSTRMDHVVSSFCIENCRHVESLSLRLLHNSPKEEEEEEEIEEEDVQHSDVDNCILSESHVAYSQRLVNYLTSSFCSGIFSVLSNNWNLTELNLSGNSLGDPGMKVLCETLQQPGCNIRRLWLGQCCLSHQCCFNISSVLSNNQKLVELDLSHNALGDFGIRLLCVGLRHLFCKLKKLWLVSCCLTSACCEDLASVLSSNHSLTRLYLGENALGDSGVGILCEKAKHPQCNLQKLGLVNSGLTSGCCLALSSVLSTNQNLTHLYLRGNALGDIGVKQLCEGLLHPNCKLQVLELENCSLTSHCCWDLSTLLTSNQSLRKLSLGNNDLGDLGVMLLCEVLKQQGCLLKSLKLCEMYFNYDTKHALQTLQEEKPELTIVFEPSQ

On to `Cc1noc(-c2ccc(-c3ccc(C4(C(=O)O)CC4)cc3)cc2)c1NC(=O)O[C@H](C)c1ccccc1` [AM152, Cyclopropanecarboxylic acid, 1-[4′-[3-methyl-4-[[[(1R)-1-phenylethoxy]carbonyl]amino]-S-isoxazolyl][1,1′-biphenyl]-4-yl]-], for which the “toxicity leading to early termination of the study” value in data set [1] is “gall bladder toxicity and early signs of liver toxicity”.
A word on the pIC50: it is −log10 of the IC50, conventionally taken in molar units. For the molecule `Cc1noc(-c2ccc(-c3ccc(CC(=O)O)cc3)cc2)c1NC(=O)O[C@H](C)c1ccccc1` [AM095, 1,1′-Biphenyl]-4-acetic acid, 4′-[3-methyl-4-[[[(1R)-1-phenylethoxy]carbonyl]amino]-S-isoxazolyl[ ]-], the negative logarithm of the IC50 (pIC50) is 6.14 in data set [2], 6.01 in data set [3], 6.11 in data set [4] and 6.64 in data set [5]. Further, the “ED50, block of LPA-induced histamine release” value in [6] was 8.3 mg/kg. The “ED50, reduction of BALF collagen and protein” value in data set [7] (in lungs) is reported as 10 mg/kg. Besides, the “macrophage and lymphocyte infiltration induced by bleomycin” value in data set [7] (mice) is “decrease both macrophage and lymphocyte infiltration”.
For the molecule `CC(C)(O)c1coc(S(=O)(=O)NC(=O)Nc2c3c(cc4c2CCC4)CCC3)c1` [MCC950, N-[[(1,2,3,5,6,7-hexahydro-s-indacen-4-yl)amino]carbonyl]-4-(1-hydroxy-1-methylethyl)-2-furansulfonamide], the “inhibition of NLRC4 inflammasome” value in data set [8] was “does not inhibit”. The “inhibition of AIM2 inflammasome” value in [9] is “does not inhibit”. In addition, the “inhibition of NLRP1 inflammasome” value in data set [10] was “does not inhibit”. For the same molecule, the “inhibition of TLR2 signaling” value in [11] is “does not inhibit”. Moreover, the “NLRP3-induced IL-1β production” value in data set [12] is “inhibits NLRP3-induced IL-1β production”.
Take `CC[C@H](C)[C@@H]([C@@H](CC(=O)N1CCC[C@H]1[C@H](OC)[C@@H](C)C(=O)N[C@H](C)[C@@H](O)c1ccccc1)OC)N(C)C(=O)[C@@H](NC(=O)[C@H](C(C)C)N(C)C(=O)OCc1ccc(NC(=O)[C@H](CCCNC(N)=O)NC(=O)[C@@H](NC(=O)CCCCCN2C(=O)C=CC2=O)C(C)C)cc1)C(C)C` [vc-MMAE, maleimide-vc-PABC-MMAE] ({Hexanoyl(6-maleimido)}-V[Cit][PABC][NMeV]V[Dil][Dolaproine]-X1): in data set [13] (administered to cells as a free drug, FIG. 8A), the “fold less toxic than unmodified MMAE” value is recorded as “approximately 100 fold”.
For `CC[C@H](C)[C@@H]([C@@H](CC(=O)N1CCC[C@H]1[C@H](OC)[C@@H](C)C(=O)N[C@H](C)[C@@H](O)c1ccccc1)OC)N(C)C(=O)[C@@H](NC(=O)[C@@H](NC)C(C)C)C(C)C` [MMAE, monomethyl auristatin E] (H-[NMeV]V[Dil][Dolaproine]-X1), the “MMAE concentrations giving potent growth inhibition and cell death” value in data set [13] (free drug, about 5 days, FIG. 7) is “above 1.1 nM”.
